target: IgE-Tb / FcεRIα-Y131A-AF488 (Homo sapiens, UniProt P01854); experiment: IgE-Tb / FcεRIα-Y131A-AF488 FRET assay (protocol for examples 1 to 233); type: binding; conditions: examples 1 to 233: 5 nM IgE-Tb, 25 nM FcεRIα-Y131A-AF488, incubated 2 hours at room temperature; read-out: Y131A FRET IC50 range
Summary of the method: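 Compounds (top final concentration usually 10 μM, 3-fold, 10 points, 2% DMSO) incubated 2 h at room temperature with IgE-Tb (5 nM) and FcεRIα-Y131A-AF488 (25 nM). Background from 200 nM unlabelled receptor subtracted; FRET ratio 520/495 nm after 330 nm excitation gave percent inhibition, fitted four-parameter for IC50.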

IgE-Tb / FcεRIα-Y131A-AF488, sequence (P01854 1-427 limits assumed, stated change not applied): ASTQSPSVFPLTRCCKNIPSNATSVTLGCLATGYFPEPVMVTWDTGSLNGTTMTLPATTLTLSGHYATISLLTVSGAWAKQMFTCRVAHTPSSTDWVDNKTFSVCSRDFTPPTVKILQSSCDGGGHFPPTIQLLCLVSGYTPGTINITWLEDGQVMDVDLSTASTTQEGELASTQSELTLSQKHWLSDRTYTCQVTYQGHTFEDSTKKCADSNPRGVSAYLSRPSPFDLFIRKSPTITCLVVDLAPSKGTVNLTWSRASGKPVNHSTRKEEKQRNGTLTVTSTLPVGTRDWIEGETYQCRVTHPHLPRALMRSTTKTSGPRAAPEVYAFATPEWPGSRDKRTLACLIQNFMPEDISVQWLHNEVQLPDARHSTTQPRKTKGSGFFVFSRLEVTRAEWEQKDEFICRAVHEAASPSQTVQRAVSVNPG

`O=C(OCC1CC1)c1c(NC(=O)C2CC2)sc2c1CC(NC(=S)Nc1cccnc1)CC2` (stereo not drawn) [Example 93, Cyclopropylmethyl 2-(cyclopropanecarbonylamino)-5-(3-pyridylcarbamothioylamino)-4,5,6,7-tetrahydrobenzothiophene-3-carboxylate] was tested. Which IC50 did it give?
Its IC50 is 1000 to 10000 nM.

`O=C(OCC1CC1)c1c(NC(=O)C2CC2)sc2c1CC(n1cnnc1Nc1cccnc1)CC2` (stereo not drawn) [Example 94, Cyclopropylmethyl 2-(cyclopropanecarbonylamino)-5-[3-(3-pyridylamino)-1,2,4-triazol-4-yl]-4,5,6,7-tetrahydrobenzothiophene-3-carboxylate] was tested. Which IC50 did it give?
The IC50 was < 1000 nM.

For `CC(C)(C)OC(=O)NC1CCCc2c1sc(NC(=O)C1CC1)c2C(=O)NCC1CC1` (stereo not drawn) [Example 97, tert-Butyl N-[2-(cyclopropanecarbonylamino)-3-(cyclopropylmethylcarbamoyl)-4,5,6,7-tetrahydrobenzothiophen-7-yl]carbamate], which IC50 is on record?
Its IC50 is 1000 to 10000 nM.

`CCNC(=O)C1CCCc2c1sc(NC(=O)C1CC1)c2C(=O)NCC1CC1` (stereo not drawn) [Example 98, 2-(Cyclopropanecarbonylamino)-N3-(cyclopropylmethyl)-N7-ethyl-4,5,6,7-tetrahydrobenzothiophene-3,7-dicarboxamide] was tested. Which IC50 did it give?
Its IC50 is 10000 to 50000 nM.

`O=C(NCC1CC1)c1c(NC(=O)C2CC2)sc2c1CC(c1cc[nH]n1)CC2` (stereo not drawn) [Example 100, 2-(Cyclopropanecarbonylamino)-N-(cyclopropylmethyl)-5-(1H-pyrazol-3-yl)-4,5,6,7-tetrahydrobenzothiophene-3-carboxamide] was tested. Which IC50 did it give?
Its IC50 is < 1000 nM.

How did the IC50 turn out when `CCOC(=O)c1c(NC(=O)C2CC2)sc2c1CCCC2O` (stereo not drawn) [Example 103, Ethyl 2-(cyclopropanecarbonylamino)-7-hydroxy-4,5,6,7-tetrahydrobenzothiophene-3-carboxylate] was run?
The IC50 was 10000 to 50000 nM.

For `N#Cc1ncn([C@H]2CCc3sc(NC(=O)C4CC4)c(C(=O)NCC4CC4)c3C2)c1N` [Example 104, (5S)-5-(5-Amino-4-cyano-imidazol-1-yl)-2-(cyclopropanecarbonylamino)-N-(cyclopropylmethyl)-4,5,6,7-tetrahydrobenzothiophene-3-carboxamide], which IC50 is on record?
Its IC50 is < 1000 nM.

For `Cc1cc(Nc2nncn2[C@H]2CCc3sc(NC(=O)C4CC4)c(C(=O)NCC4CC4)c3C2)n(C)n1` [Example 106, (5S)-2-(Cyclopropanecarbonylamino)-N-(cyclopropylmethyl)-5-[3-[(2,5-dimethylpyrazol-3-yl)amino]-1,2,4-triazol-4-yl]-4,5,6,7-tetrahydrobenzothiophene-3-carboxamide], which IC50 is on record?
The IC50 was < 1000 nM.

Which IC50 does the source give for `Cc1cc(-n2cnnc2N[C@H]2CCc3sc(NC(=O)C4CC4)c(C(=O)NCC4CC4)c3C2)n(C)n1` [Example 107, (5S)-2-(Cyclopropanecarbonylamino)-N-(cyclopropylmethyl)-5-[[4-(2,5-dimethylpyrazol-3-yl)-1,2,4-triazol-3-yl]amino]-4,5,6,7-tetrahydrobenzothiophene-3-carboxamide] here?
Its IC50 is 1000 to 10000 nM.

With `Cc1cc(Nc2nncn2[C@H]2CCc3sc(NC(=O)C4CC4)c(C(=O)NCC(C)C)c3C2)n(C)n1` [Example 108, (5S)-2-(Cyclopropanecarbonylamino)-5-[3-[(2,5-dimethylpyrazol-3-yl)amino]-1,2,4-triazol-4-yl]-N-isobutyl-4,5,6,7-tetrahydrobenzothiophene-3-carboxamide] as the compound, how does the IC50 read?
Its IC50 is < 1000 nM.

Which IC50 does the source give for `NC1CCc2sc(NC(=O)C3CC3)c(C(=O)NCC3CC3)c2C1` (stereo not drawn) [Example 109, 5-Amino-2-(cyclopropanecarbonylamino)-N-(cyclopropylmethyl)-4,5,6,7-tetrahydrobenzothiophene-3-carboxamide] here?
Its IC50 is 10000 to 50000 nM.

Which IC50 does the source give for `N#CN=C(Nc1ccccc1)NC1CCc2sc(NC(=O)C3CC3)c(C(=O)NCC3CC3)c2C1` (stereo not drawn) [Example 110, 5-[[N′-Cyano-N-phenyl-carbamimidoyl]amino]-2-(cyclopropanecarbonylamino)-N-(cyclopropylmethyl)-4,5,6,7-tetrahydrobenzothiophene-3-carboxamide] here?
The IC50 was < 1000 nM.

With `CC1(CNc2nncn2[C@H]2CCc3sc(NC(=O)C4CC4)c(C(=O)NCC4CC4)c3C2)CC1` [Example 112, (5S)-2-(Cyclopropanecarbonylamino)-N-(cyclopropylmethyl)-5-[3-[(1-methylcyclopropyl)methylamino]-1,2,4-triazol-4-yl]-4,5,6,7-tetrahydrobenzothiophene-3-carboxamide] as the compound, how does the IC50 read?
The IC50 was < 1000 nM.

How did the IC50 turn out when `CC(=O)Nc1cncn1[C@H]1CCc2sc(NC(=O)C3CC3)c(C(=O)NCC3CC3)c2C1` [Example 113, (5S)-5-(5-Acetamidoimidazol-1-yl)-2-(cyclopropanecarbonylamino)-N-(cyclopropylmethyl)-4,5,6,7-tetrahydrobenzothiophene-3-carboxamide] was run?
Its IC50 is < 1000 nM.

`O=C(NCC1CC1)c1c(NC(=O)C2CC2)sc2c1C[C@@H](n1cnnc1Nc1ccncc1)CC2` [Example 115, (5S)-2-(Cyclopropanecarbonylamino)-N-(cyclopropylmethyl)-5-[3-(4-pyridylamino)-1,2,4-triazo-4-yl]-4,5,6,7-tetrahydrobenzothiophene-3-carboxamide] was tested. Which IC50 did it give?
Its IC50 is < 1000 nM.

For `COc1ccc(NC(=NC#N)NC2CCc3sc(NC(=O)C4CC4)c(C(=O)NCC4CC4)c3C2)cc1OC` (stereo not drawn) [Example 116, 5-[[N′-Cyano-N-(3,4-dimethoxyphenyl)carbamimidoyl]amino]-2-(cyclopropanecarbonylamino)-N-(cyclopropylmethyl)-4,5,6,7-tetrahydrobenzothiophene-3-carboxamide], which IC50 is on record?
The IC50 was < 1000 nM.

How did the IC50 turn out when `CCOC(=O)c1ncn([C@H]2CCc3sc(NC(=O)C4CC4)c(C(=O)NCC4CC4)c3C2)c1N` [Example 117, Ethyl 5-amino-1-[(5S)-2-(cyclopropanecarbonylamino)-3-(cyclopropylmethylcarbamoyl)-4,5,6,7-tetrahydrobenzothiophen-5-yl]imidazole-4-carboxylate] was run?
The IC50 was < 1000 nM.

Which IC50 does the source give for `O=C(NCC1CC1)c1c(NC(=O)C2CC2)sc2c1CC(Nc1noc(=O)[nH]1)CC2` (stereo not drawn) [Example 119, 2-(Cyclopropanecarbonylamino)-N-(cyclopropylmethyl)-5-[(5-oxo-4H-1,2,4-oxadiazol-3-yl)amino]-4,5,6,7-tetrahydrobenzothiophene-3-carboxamide] here?
Its IC50 is < 1000 nM.

Which IC50 does the source give for `CCNc1c(NC2CCc3sc(NC(=O)C4CC4)c(C(=O)NCC4CC4)c3C2)c(=O)c1=O` (stereo not drawn) [Example 120, 2-(Cyclopropanecarbonylamino)-N-(cyclopropylmethyl)-5-[[2-(ethylamino)-3,4-dioxo-cyclobuten-1-yl]amino]-4,5,6,7-tetrahydrobenzothiophene-3-carboxamide] here?
The IC50 was < 1000 nM.

With `N#CN=C(NCC(F)(F)F)NC1CCc2sc(NC(=O)C3CC3)c(C(=O)NCC3CC3)c2C1` (stereo not drawn) [Example 121, 5-[[N′-cyano-N-(2,2,2-trifluoroethyl)carbamimidoyl]amino]-2-(cyclopropanecarbonylamino)-N-(cyclopropylmethyl)-4,5,6,7-tetrahydrobenzothiophene-3-carboxamide] as the compound, how does the IC50 read?
The IC50 was < 1000 nM.

With `CCNc1nncn1[C@H]1CCc2sc(NC(=O)C3CC3)c(C(=O)NCC3CC3)c2C1` [Example 122, (5S)-2-(cyclopropanecarbonylamino)-N-(cyclopropylmethyl)-5-[3-(ethylamino)-1,2,4-triazol-4-yl]-4,5,6,7-tetrahydrobenzothiophene-3-carboxamide] as the compound, how does the IC50 read?
Its IC50 is < 1000 nM.

Source: patent publication US12018021B2 (UCB Biopharma SRL, priority 2018, dated 2024)
